{"source": "paper PMC11919836", "about": "“Multi-omics analysis reveals Jianpi formula-derived bioactive peptide-YG-22 potentially inhibited colorectal cancer via regulating epigenetic reprogram and signal pathway regulation” (Frontiers in Genetics, 2025)", "key": {"HCT116 cells [1]": {"system": "HCT116 cells", "test": "CCK-8 cell viability assay of candidate peptides", "format": "cell-based", "conditions": "peptide 5 mg/mL, 24 h, CCK-8, absorbance 450 nm, mean ± SEM n = 3, P < 0.01 vs control", "description": "(§1) After comparing the differential expressed peptides between two treatment groups: chemotherapy alone (n = 5) and chemotherapy combined with Jianpi formula (n = 5). Six candidate peptides were finally screened out, including YP-16 (YGRKKRRQRRR-GPSVP), YP-17 (YGRKKRRQRRR-OLTSGP), YG-22 (YGRKKRRQRRR-DGSPGKDGVRG), YM-22 (YGRKKRRQRRR-LGEAFDGARDM), YP-23 (YGRKKRRQRRR-MEPLGRQLTSGP), and YD-28 (YGRKKRRQRRR-EDPQGDAAOKTDTSHHD). And then, the candidate peptides were synthesized based on their amino acid sequences to evaluate their effects on HCT116 cell viability. Briefly, a total of 1,500 cells per well were seeded in 96-well plates and incubated overnight in a culture medium under appropriate conditions. Following incubation, the cells were treated with indicated peptides (5 mg/mL) at the desired concentrations for 24 h. Cell viability was then assessed using the CCK-8 assay (Dojindo, Japan), following the manufacturer’s instructions. After adding the CCK-8 reagent and incubating for the recommended time, absorbance was measured at 450 nm using a spectrophotometric plate reader (Bio-Tek, United States). Furthermore, HCT116 cells were treated with varying concentrations of YG-22 (0, 2, 4, 6, 8, and 10 mg/mL) for either 24 or 48 h to determine the IC50 values. After the incubation with YG-22 (IC50 concentration) for 48 h, the HCT116 cells were collected for subsequent analyses, including RNA sequencing (RNA-seq) to evaluate gene expression profiles, liquid chromatography-mass spectrometry (LC-MS) for metabolite analysis, assay for transposase-accessible chromatin using sequencing (ATAC-seq) to assess chromatin accessibility, and chromatin immunoprecipitation sequencing (ChIP-seq) to study the H3K4Me3 profiling and NF-κB protein-DNA interactions.\nThere were at least three biological replicates, excluding ATAC-seq and ChIP-seq analysis, for each group. Cell viability evaluation data were reported as means ± SEM. Student’s t-test (two-tailed) or one-way ANOVA with Bonferroni’s multiple comparison test were used. P-values of <0.05, or 0.01, or 0.001 were deemed significant."}, "HCT116 cells [2]": {"system": "HCT116 cells", "test": "Transcriptome analysis (RNA-seq) of YG-22-treated cells", "format": "cell-based", "conditions": "HCT116, YG-22 1.769 mg/mL, 48 h, treated vs control", "description": "After comparing the differential expressed peptides between two treatment groups: chemotherapy alone (n = 5) and chemotherapy combined with Jianpi formula (n = 5). Six candidate peptides were finally screened out, including YP-16 (YGRKKRRQRRR-GPSVP), YP-17 (YGRKKRRQRRR-OLTSGP), YG-22 (YGRKKRRQRRR-DGSPGKDGVRG), YM-22 (YGRKKRRQRRR-LGEAFDGARDM), YP-23 (YGRKKRRQRRR-MEPLGRQLTSGP), and YD-28 (YGRKKRRQRRR-EDPQGDAAOKTDTSHHD). And then, the candidate peptides were synthesized based on their amino acid sequences to evaluate their effects on HCT116 cell viability. […] Cell viability was then assessed using the CCK-8 assay (Dojindo, Japan), following the manufacturer’s instructions. After adding the CCK-8 reagent and incubating for the recommended time, absorbance was measured at 450 nm using a spectrophotometric plate reader (Bio-Tek, United States). […]\nFor transcriptome analysis, treated and control HCT116 cells (1 × 10^5) are collected, and total RNA is extracted using RNA isolation kit (Qiagen, Germany) following the manufacturer’s instructions. Total RNA samples were prepared with an initial concentration of at least 20 ng/μL and a total quantity of at least 2 μg, ensuring an A260/A280 ratio between 1.9 and 2.1 for quality control. mRNA was isolated using oligo-dT beads to capture polyA-tailed transcripts, followed by thermal fragmentation into 200–300 bp fragments. […]"}, "HCT116 cells [3]": {"system": "HCT116 cells", "test": "Metabolomics analysis (LC-MS) of YG-22-treated cells", "format": "cell-based", "conditions": "HCT116, YG-22 1.769 mg/mL, 48 h", "description": "as §1\nFor metabolomics analysis, treated and control HCT116 cells (1 × 10^5) are collected, washed with cold PBS, and lysed using 80% methanol to extract metabolites. The lysates are centrifuged at 12,000–15,000 × g at 4°C, and the supernatants are stored at −80°C. Metabolite profiling is performed using liquid chromatography-mass spectrometry (LC-MS) with a reverse-phase LC column and gradient elution, followed by high-resolution mass spectrometry in positive and/or negative ion modes. Data preprocessing involves peak detection, alignment, normalization, and filtering using software such as XCMS or Compound Discoverer. Metabolites are identified by matching m/z values, retention times, and fragmentation patterns to databases like HMDB or METLIN, with MS/MS used for structural confirmation. […] The results are visualized with heatmaps, volcano plots, and pathway diagrams, providing insights into metabolic changes induced by treatment."}, "HCT116 cells [4]": {"system": "HCT116 cells", "test": "Chromatin accessibility analysis (ATAC-seq) of YG-22-treated cells", "format": "cell-based", "conditions": "HCT116, YG-22 1.769 mg/mL, 48 h", "description": "as §1, with “After the incubation with YG-22 (IC50 concentration) for 48 h, the HCT116 cells were collected for subsequent analyses, including RNA sequencing (RNA-seq) to evaluate gene expression profiles, liquid chromatography-mass spectrometry (LC-MS) for metabolite analysis, assay for transposase-accessible chromatin using sequencing (ATAC-seq) to assess chromatin accessibility, and chromatin immunoprecipitation sequencing (ChIP-seq) to study the H3K4Me3 profiling and NF-κB protein-DNA interactions.” left out"}, "H3K4Me3 in HCT116 cells": {"system": "H3K4Me3 in HCT116 cells", "test": "ChIP-seq H3K4Me3 profiling of YG-22-treated cells", "format": "cell-based, human", "conditions": "48 h", "description": "as §1\nChIP-seq analysis for H3K4Me3 profiling and NF-κB protein-DNA interactions was conducted using a combination of chromatin immunoprecipitation and high-throughput sequencing. HCT116 cells (5 × 10^6) were fixed with 1% formaldehyde to crosslink proteins and DNA, followed by quenching with glycine and lysis to isolate chromatin. The chromatin was sonicated to fragment DNA, and immunoprecipitation was performed using specific antibodies for H3K4Me3 and NF-κB, coupled with Protein A + G magnetic beads. The immunoprecipitated complexes were reverse crosslinked, and DNA was purified. High-throughput sequencing libraries were prepared through end repair, A-tailing, adapter ligation, and PCR amplification, targeting fragment sizes of 100–300 bp. Sequencing was performed on the Illumina NovaSeq 6,000 platform.\nBioinformatics analysis included quality control using FastQC, adapter trimming with fastp, and alignment of clean reads to the human reference genome (hg38) using Bowtie2. Peak calling was conducted with MACS2 to identify binding sites and histone modifications, followed by annotation using ChIPseeker. Motif analysis, using MEME and HOMER, identified enriched motifs within peak regions, particularly for NF-κB binding. Functional enrichment analysis was carried out with KEGG pathways to link identified peaks to pathways. Visualization tools, such as heatmaps and Circos plots, were used to highlight binding site distribution and signal enrichment across the genome, providing insights into chromatin modifications and transcription factor interactions under experimental conditions."}, "NF-κB in HCT116 cells": {"system": "NF-κB in HCT116 cells", "test": "ChIP-seq of NF-κB binding in YG-22-treated cells", "format": "cell-based, human", "description": "as §1, with “interactions. […]” for “interactions.”\nBioinformatics analysis included quality control using FastQC, adapter trimming with fastp, and alignment of clean reads to the human reference genome (hg38) using Bowtie2. […]"}, "[5]": {"conditions": "HCT116, YG-22 1.769 mg/mL, ChIP-seq"}}, "note": "Where no end group is shown, it is not given here.", "data": [{"substance": "YGRKKRRQRRR-EDPQGDAAOKTDTSHHD [YD-28]", "values": [{"measurement": "effect on HCT116 cell viability", "setting": "HCT116 cells [1]", "value": "notably reduced cell viability"}]}, {"substance": "YGRKKRRQRRR-LGEAFDGARDM (YGRKKRRQRRRLGEAFDGARDM) [YM-22]", "values": [{"measurement": "effect on HCT116 cell viability", "setting": "HCT116 cells [1]", "value": "notably reduced cell viability"}]}, {"substance": "YGRKKRRQRRR-OLTSGP [YP-17]", "values": [{"measurement": "effect on HCT116 cell viability", "setting": "HCT116 cells [1]", "value": "notably reduced cell viability"}]}, {"substance": "YGRKKRRQRRRDGSPGKDGVRG [YG-22]", "values": [{"measurement": "effect on HCT116 cell viability", "setting": "HCT116 cells [1]", "value": "notably reduced cell viability"}, {"measurement": "downregulated genes (DEGs)", "setting": "HCT116 cells [2]", "value": 252}, {"measurement": "upregulated genes (DEGs)", "setting": "HCT116 cells [2]", "value": 236}, {"measurement": "downregulated metabolites, negative ion (NEG) mode", "setting": "HCT116 cells [3]", "value": 127}, {"measurement": "downregulated metabolites, positive ion (POS) mode", "setting": "HCT116 cells [3]", "value": 70}, {"measurement": "upregulated metabolites, negative ion (NEG) mode", "setting": "HCT116 cells [3]", "value": 121}, {"measurement": "upregulated metabolites, positive ion (POS) mode", "setting": "HCT116 cells [3]", "value": 69}, {"measurement": "downregulated differential chromatin accessibility peaks", "setting": "HCT116 cells [4]", "value": "1,697"}, {"measurement": "upregulated differential chromatin accessibility peaks", "setting": "HCT116 cells [4]", "value": 78}, {"measurement": "downregulated differential H3K4me3 peaks", "setting": "H3K4Me3 in HCT116 cells; [5]", "value": 385}, {"measurement": "upregulated differential H3K4me3 peaks", "setting": "H3K4Me3 in HCT116 cells; [5]", "value": 97}, {"measurement": "intronic H3K4me3 peaks", "setting": "H3K4Me3 in HCT116 cells; HCT116, YG-22-treated, control 5.2%", "value": 4.5, "unit": "%"}, {"measurement": "intergenic H3K4me3 peaks", "setting": "H3K4Me3 in HCT116 cells; HCT116, YG-22-treated, control 7.1%", "value": 6.3, "unit": "%"}, {"measurement": "promoter-associated H3K4me3 peaks", "setting": "H3K4Me3 in HCT116 cells; HCT116, YG-22-treated, control 86.3%", "value": 87.8, "unit": "%"}, {"measurement": "downregulated NF-κB peaks", "setting": "NF-κB in HCT116 cells; HCT116, YG-22, 48 h, ChIP-seq", "value": 36}, {"measurement": "upregulated NF-κB peaks", "setting": "NF-κB in HCT116 cells; HCT116, YG-22, 48 h, ChIP-seq", "value": 26}, {"measurement": "NF-κB peaks in distal intergenic regions", "setting": "NF-κB in HCT116 cells; HCT116, YG-22-treated, 48 h, control 28.9%", "value": 38.4, "unit": "%"}]}]}
